# Article PMC11696576, “Next generation thiazolyl ketone inhibitors of cytosolic phospholipase A2 α for targeted cancer therapy” (Nature Communications, 2025)
# Values joined by “and” are separate entries in the source; they are usually repeats but may differ in a detail not shown here. Equal values may be shown once. Read-outs that look alike come from different tables or passages of the source. Marks after values point to notes of the source that are not given here.
# How the values were obtained:
# SW982 synoviocytes = experiment: cellular arachidonic acid (AA) release assay, IL-1β stimulated; format: cell-based, human; conditions: for inhibition at 5 µM: SW982, 5 µM; for EC50 / IC50: SW982; for IC50: concentration in µM, read-out: logEC50 best-fit value, AA release (converted)
# Text: To test the inhibitory activity of the compounds in cells, we measured their effect on the release of AA from synoviocytes stimulated with IL-1β (Table 2). […] Combined with favorable selectivity and stability it was thus chosen for further evaluation. We looked specifically at how it modulated eicosanoid levels in response to stimulation both in whole blood and in isolated peripheral blood mononuclear cells (PBMCs) and checked for off-target effects on AA metabolism in whole blood by also measuring the effect of GK420 on eicosanoid release in the presence of exogenous free AA.
# The human synovial sarcoma cell line SW982 (ATCC, London, UK) was used to measure AA release. The cells were maintained in Dulbecco’s Modified Eagle Medium (DMEM) supplemented with 10% FBS, 0.1 mg/mL gentamicin, and 0.3 mg/mL L-glutamine at 37 °C with 10% CO2, and experiments were performed at 3 days post-confluence. To measure AA release, the cells were labeled overnight with ^3H-AA (0.4 μCi/mL) in serum-free DMEM and then washed twice with PBS containing fBSA (2 mg/mL) to remove unincorporated radioactivity. The inhibitors, or DMSO vehicle control, were subsequently added to the cells for 1 hour prior to stimulation with 10 ng/mL IL-1β for 4 h. Supernatants were collected and centrifuged at 300 × g for 5 min to clear them of detached cells and adherent cells were dissolved in 1 N NaOH. The ^3H-AA was assessed by liquid scintillation counting (LS 6500 Multi-Purpose Scintillation Counter, Beckman Coulter, Inc., USA) and the results are given as the inhibition of released ^3H-AA in the supernatants relative to total ^3H-AA incorporated into the cells, as described. EC50 values were calculated by fitting the % inhibition data to a three-parameter dose-response curve in GraphPad prism v10.4.0. Experiments were performed in technical triplicates and repeated at least three times.
# recombinant human cPLA2α = molecular target: T1, recombinant human cPLA2α (Homo sapiens, UniProt P47712); experiment: radioactivity-based mixed micelle assay, cPLA2α; format: biochemical; conditions: for cPLA2α inhibition, Xi50 dose-response: replicates; for cPLA2α XI(50): XI(50) ± stdev, mole fraction of inhibitor in total substrate interface for 50% inhibition; for cPLA2 % inhibition at 0.091 mole fraction, average: average of triplicates
# T1 sequence (P47712 1-749): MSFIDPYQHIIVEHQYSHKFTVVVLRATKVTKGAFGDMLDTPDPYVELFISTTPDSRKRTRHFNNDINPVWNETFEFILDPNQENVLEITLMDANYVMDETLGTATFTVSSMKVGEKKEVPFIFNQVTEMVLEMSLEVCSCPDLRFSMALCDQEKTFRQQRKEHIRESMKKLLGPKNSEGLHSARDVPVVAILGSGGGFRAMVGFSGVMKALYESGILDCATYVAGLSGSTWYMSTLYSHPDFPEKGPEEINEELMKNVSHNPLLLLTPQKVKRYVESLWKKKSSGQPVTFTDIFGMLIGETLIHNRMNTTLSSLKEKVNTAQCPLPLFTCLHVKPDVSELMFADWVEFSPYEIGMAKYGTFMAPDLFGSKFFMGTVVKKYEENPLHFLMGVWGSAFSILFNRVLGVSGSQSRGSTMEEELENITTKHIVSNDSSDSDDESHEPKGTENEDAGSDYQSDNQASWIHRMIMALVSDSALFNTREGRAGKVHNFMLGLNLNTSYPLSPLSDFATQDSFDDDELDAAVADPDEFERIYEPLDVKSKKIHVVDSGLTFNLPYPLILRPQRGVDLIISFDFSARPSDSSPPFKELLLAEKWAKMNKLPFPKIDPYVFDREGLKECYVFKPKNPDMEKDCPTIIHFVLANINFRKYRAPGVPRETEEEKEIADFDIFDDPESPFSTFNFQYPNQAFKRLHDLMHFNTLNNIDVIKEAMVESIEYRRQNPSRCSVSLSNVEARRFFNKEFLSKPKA
# Experimental: (§1) All synthesized thiazolyl ketones were tested for their in vitro inhibitory activity on recombinant human cPLA2α and selectivity over human calcium-independent GVIA iPLA2 and secreted GV sPLA2 using our previously described group-specific radioactivity-based mixed micelle assays. The inhibition results are presented either as per cent inhibition or as XI(50) values in Table 1. […] The XI(50) is defined as the mole fraction of the inhibitor in the total substrate interface required to inhibit the enzyme activity by 50%. For comparison purposes, previously published data for the inhibitor GK470[19] are included. […] Inhibitors were initially screened at 0.091 mol fraction (5 μL of 5 mM inhibitor in DMSO) in substrate (495 μL) in technical triplicates. […] The XI(50) value and stdev values reported are for the entire curve. This analysis was performed in GraphPad Prism v6.
# [1] = stability in human plasma (LC-MS/MS); format: in vitro ADME; conditions: for Stability in human plasma 4 h: % of the compound remaining after 4 h
# Experimental: The stability of the analogs in human plasma was studied over approximately 24 h by LC-MS/MS and the results at 4 h and the final timepoint (20–25 h) are included in Table 1.
# The metabolic stability of the compounds was determined through in vitro stability assays in human plasma. Solutions of compounds in DMSO (20 mM) were diluted to 5 μg/mL in 50% methanol for infusion into the MS/MS system and spiking of calibration standards and control samples. For the MS detection, positive ionization in ESI mode was used. Good sensitivity, retention and peak shaped were achieved using a gradient with 5 mM ammonium carbamate in water and ammonium carbamate in 90% acetonitrile on a reversed phase column (ACE3AQ). Calibration standards were spiked in a calibration range of 0.5–100 ng/ml. Control samples were spiked at, low, medium, and high concentration levels. The spiked plasma samples were prepared by protein precipitation using acetonitrile containing appropriate internal standard (IS). […] Samples were prepared for analysis by taking 50 μL of plasma sample and adding 100 μL of IS working solution in acetonitrile followed by vortexing at 2500 rpm (Multi-tube vortexer DVX-2500, Henry Troemner LLC, USA) for 2 min. The samples were centrifuged at 5300 rpm (Heraeus Megafuge 1.0 Heraeus, Germany) for 3 min and the supernatant transferred to the autosampler. Recovery was determined by comparing the prepared matrix samples (protein precipitation) with a direct sample (analytes spikes in 67% acetonitrile = injection solution) such that the recovery of the sample preparation and the matrix effects were determined together. Two or three samples were each measured in technical triplicates to give the final % recovery.
# secreted GV sPLA2 = molecular target: T2, secreted GV sPLA2 (Homo sapiens, UniProt P39877); experiment: radioactivity-based mixed micelle assay, GV sPLA2; format: biochemical
# T2 sequence (P39877 21-138): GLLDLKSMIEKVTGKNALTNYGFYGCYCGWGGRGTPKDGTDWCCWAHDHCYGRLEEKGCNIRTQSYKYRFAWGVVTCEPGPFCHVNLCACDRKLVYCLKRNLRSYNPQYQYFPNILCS
# Experimental: as §1
# [2] = 0.2 µM, individual biological replicate
# [3] = 1 µM, individual biological replicate
# [4] = 5 µM, individual biological replicate
# [5] = Homo sapiens, individual biological replicate
# [6] = Homo sapiens, SW982, 4 h, 1 µM inhibitor, IL-1β 4 h, mean ± stdev, read-out: AA release % Inhib
# [7] = Homo sapiens, IL-1β 4 h, 0.2, 1 or 5 µM inhibitor, read-out: AA release EC50 µM (95% CI)
# [8] = Homo sapiens, [Agonist] vs. Response (three parameters)
# [9] = Homo sapiens, [Agonist] vs. Response (three parameters), read-out: EC50 best-fit value, AA release
# [10] = 0.091 mole fraction, read-out: cPLA2α % Inhib
# [11] = individual technical replicate, read-out: cPLA2 % inhibition at 0.091 mole fraction
# [12] = individual sample, human plasma
# [13] = 0.091 mole fraction, read-out: GV sPLA2 % Inhib
# [14] = average of triplicates, read-out: sPLA2 % inhibition at 0.091 mole fraction, average
# [15] = individual technical replicate, read-out: sPLA2 % inhibition at 0.091 mole fraction
# [16] = % of the compound remaining after 20 h
# [17] = Homo sapiens, SW982, 1 µM, individual biological replicate, read-out: % inhibition of stimulated AA release
SMILES,EC50 (SW982 synoviocytes; [7]),IC50 (SW982 synoviocytes; [8]),EC50 (SW982 synoviocytes; [9]),inhibition at 0.091 mole fraction (recombinant human cPLA2α; [10]),"cPLA2 % inhibition at 0.091 mole fraction, average (recombinant human cPLA2α)",inhibition at 0.091 mole fraction (recombinant human cPLA2α; [11]),Stability in human plasma 4 h [1],"plasma stability 4h (%) [1, 12]",inhibition at 0.091 mole fraction (secreted GV sPLA2; [13]),inhibition at 0.091 mole fraction (secreted GV sPLA2; [14]),inhibition at 0.091 mole fraction (secreted GV sPLA2; [15]),"Stability in human plasma 20+ h [1, 16]","plasma stability 20h (%) [1, 12]",% inhibition of stimulated AA release (SW982 synoviocytes; [2]),% inhibition of stimulated AA release (SW982 synoviocytes; [3]),% inhibition of stimulated AA release (SW982 synoviocytes; [4]),inhibition at 5 µM (SW982 synoviocytes; [5]),inhibition at 1 µM (SW982 synoviocytes; [6]),cPLA2α XI(50) (recombinant human cPLA2α),inhibition at 1 µM (SW982 synoviocytes; [17]),other results
CCCCCCCCc1ccc(OC(C)C(=O)c2nc(C(=O)OC)cs2)cc1 (stereo not shown) [GK402],6.7 µM,6.7 µM,6.7 µM,79%,79.2%,81%,79.7%,79.3% and 79.5% and 80.3%,50%,49.5%,50.4%,,,6.56% and 7.69% and 18.19%,17.63% and 31.62%,31.01% and 44.57%,36.7%,23 ± 8%,,18.5%,"Stability in human plasma 20+ h ([1]; % of the compound remaining after 25 h (¤)): 47.3¤ %; plasma stability 25h (%) [1, 12]: 47% and 46% and 48.8%"
COC(=O)c1csc(C(=O)COc2ccc(Oc3ccccc3)cc2)n1 [GK403],0.79 µM,0.793 µM,0.793 µM,95%,95.4%,95.1%,21.5%,32.3% and 10.6%,32%,,27.6%,,,11.19% and -0.79% and 22.56% and 22.92%,71.06% and 44.35% and 48.83% and 61.77%,83.19% and 96.79% and 91.92%,101%,57 ± 12%,0.0014 mole fraction and 0.0014 ± 0.0001 mole fraction,,

# The next lines start with results.
EC50 (SW982 synoviocytes; [7]),IC50 (SW982 synoviocytes; [8]),EC50 (SW982 synoviocytes; [9]),inhibition at 0.091 mole fraction (recombinant human cPLA2α; [10]),"cPLA2 % inhibition at 0.091 mole fraction, average (recombinant human cPLA2α)",inhibition at 0.091 mole fraction (recombinant human cPLA2α; [11]),Stability in human plasma 4 h [1],"plasma stability 4h (%) [1, 12]",inhibition at 0.091 mole fraction (secreted GV sPLA2; [13]),inhibition at 0.091 mole fraction (secreted GV sPLA2; [14]),inhibition at 0.091 mole fraction (secreted GV sPLA2; [15]),"Stability in human plasma 20+ h [1, 16]","plasma stability 20h (%) [1, 12]",SMILES,% inhibition of stimulated AA release (SW982 synoviocytes; [2]),% inhibition of stimulated AA release (SW982 synoviocytes; [3]),% inhibition of stimulated AA release (SW982 synoviocytes; [4]),inhibition at 5 µM (SW982 synoviocytes; [5]),inhibition at 1 µM (SW982 synoviocytes; [6]),cPLA2α XI(50) (recombinant human cPLA2α),inhibition at 1 µM (SW982 synoviocytes; [17]),other results
0.32 µM,0.325 µM,0.325 µM,97%,96.6%,96%,59.9%,55.1% and 64.7%,53%,53.3%,50.7%,,,CCCCCCCOc1ccc(OC(C)C(=O)c2nc(C(=O)OC)cs2)cc1 (stereo not shown) [GK439],39.77% and 13.25% and 29.88% and 48.17%,95.13% and 73.24% and 73.33% and 76.5%,98.88% and 99.59% and 96.75%,116%,80 ± 10%,0.0029 mole fraction and 0.0029 ± 0.0004 mole fraction,,"cPLA2α inhibition, Xi50 dose-response (recombinant human cPLA2α; Log [inhibitor] (mole%) -3.00): 33.0; Stability in human plasma 20+ h ([1]; % of the compound remaining after 24 h 39 min (*)): 12.8* %; plasma stability 24h39min (%) [1, 12]: 10.7% and 14.8%"
9.34 µM,9.34 µM,9.34 µM,94%,,94.2%,35.9%,36.5% and 35.3%,36%,36.4%,28.3%,1.65%,2.1% and 1.2%,COC(=O)c1csc(C(=O)C(C)Oc2ccc(Oc3ccccc3)cc2)n1 (stereo not shown) [GK428],5.86% and -31.46% and 2.89% and 15.93%,17.3% and 4.11% and 8.14% and 18.84%,51.1% and 33.6% and 14.73% and 37.63%,,12 ± 7%,0.0038 mole fraction and 0.0038 ± 0.0001 mole fraction,,
0.67 µM,0.671 µM,0.671 µM,98%,,98.4%,61.3%,59% and 63.5%,44%,43.6%,39.7%,8.05%,0% and 16.1%,CCCCCCSc1ccc(OCC(=O)c2nc(C(=O)OC)cs2)cc1 [GK427],24.46% and 29.82% and 29.25%,49.86% and 62.69%,90.15% and 92.25% and 90.43%,84%,56 ± 5%,0.0010 mole fraction and 0.0010 ± 0.0001 mole fraction,55.8%,"inhibition at 0.2 µM (SW982 synoviocytes; Homo sapiens, SW982, 0.2 µM, individual biological replicate): 26.4%; cPLA2α inhibition, Xi50 dose-response (recombinant human cPLA2α; Log [inhibitor] (mole%) -4.30): 14.10; times more potent than GK470 (recombinant human cPLA2α; cPLA2α XI(50) relative to GK470): 7–11"
